Measured values taken from article PMC10582583, “The novel cyclophilin inhibitor C105SR reduces hepatic ischaemia–reperfusion injury via mitoprotection” (JHEP Reports, 2023).

Experiments:
[1] = test system: isolated mouse liver mitochondria; assay: Ca2+-induced mitochondrial swelling assay; format: biochemical; conditions: energised isolated mouse liver mitochondria
[2] = test system: AML-12 cells; assay: Caspase 3/7 activity assay, hypoxia/reoxygenation; format: cell-based, mouse; conditions: applied during hypoxia and reoxygenation; 4 h hypoxia, 2 h reoxygenation
Description: Necrosis is the major cause of cell death during hepatic IRI. However, mPTP opening also leads to apoptosis resulting from mitochondrial swelling, rupture of the outer mitochondrial membrane and subsequent release of cytochrome C into the cytosol.[20] We investigated whether C105SR and C110SR protected against mPTP opening-induced apoptotic cell death.
Mouse serum analysis. Blood was collected at 6 h of reperfusion. Alanine aminotransferase (ALT) and aspartate aminotransferase (AST) activities were measured on an automated analyzer in the Biochemistry Department of Henri Mondor Hospital.
Histological Analysis. Hematoxylin and eosin staining was performed on 4-μm thick formalin-fixed paraffin-embedded tissue sections. […] Necrosis areas were quantified with […]
TUNEL Assay. […] The number of TUNEL-positive cells were quantified using QuPath on slides scanned at x20 magnification using a virtual slide scanning system (Axio scan7/ZEN slidescan).
Caspase 3/7 activity assay. Caspase 3/7 activity was assessed using the commercially Caspase-Glo® 3/7 assay (Promega, Madison, Wisconsin) following the manufacturer’s instructions.
Briefly, Caspase-Glo® 3/7 Reagent was incubated with the cells and the caspase3/7 activity was determined by measuring luminescence with a luminometer (Berthold). Caspase3/7 activity was expressed as a percentage of the untreated control. […]

[3] = test system: AML-12 cells; assay: Propidium iodide staining, hypoxia/reoxygenation; format: cell-based, mouse; conditions: 1 μM; 4 h hypoxia, 1 h reoxygenation
Description: To assess whether the new SMCypIs reduced mPTP opening-induced cell death, propidium iodide fluorescence was measured in cells that had been co-loaded with calcein-AM. As expected, the loss of calcein fluorescence in cells subjected to hypoxia/reoxygenation was associated with enhanced propidium iodide fluorescence (Fig. 3A and 3C).
Calcium retention capacity (CRC) assay. Isolated liver mitochondria (1 mg/mL) energized with 5 mM glutamate/malate were incubated in a buffer allowing respiration of mitochondria (100 mM KCl, 50 mM sucrose, 10 mM HEPES, 5 mM KH2PO4, pH 7.4 at 30°C) supplemented with 1 µM calcium green 5N fluorescent probe. Mitochondria were pulsed with sequential additions of CaCl2 (20 µM) until mPTP opening along with rapid calcium release happened. The calcium concentration in the extra-mitochondrial medium was monitored with a Jasco FP-6300 spectrofluorimeter (Jasco, Bouguenais, France) at 506 nm excitation and 532 nm emission wavelengths.
Mitochondrial swelling assay. Mitochondrial swelling was assessed by measuring changes in absorbance at 540 nm using a Jasco V-530 spectrophotometer (Bouguenais, France) equipped with magnetic stirring and thermostatic control (30°C). […]
Monitoring of mPTP opening. mPTP opening was monitored in AML-12 cells using the CoCl2-calcein AM fluorescence-quenching assay. […] Calcein fluorescence was measured using a spectrofluorimeter at excitation and emission wavelengths of 485 nm and 535 nm, respectively. Images were acquired using a standard inverted fluorescence microscope (Zeiss Axio, […]
Propidium iodide staining. […] Fluorescence was measured using an Infinite 200 Pro fluorescent plate reader (Tecan, Mannedorf, Switzerland) at excitation and emission wavelengths of 533 nm and 617 nm, respectively. Images were acquired using a standard inverted fluorescence microscope (Zeiss Axio, Oberkochen, Germany). […]
Cell viability assays. Lactate dehydrogenase (LDH) release in culture medium was assessed using the commercially non-radioactive CytoTox-96 kit (Promega, Madison, Wisconsin) following the manufacturer’s instructions. […]

SMILES | IC50 [1] [µM] | protection against hypoxia/reoxygenation-induced cell apoptosis (caspase 3/7 activity) [2] | propidium iodide fluorescence [3]
COc1ccc(Br)cc1[C@H](NC(=O)NCc1ccc2c(c1)CCCN2)C(=O)N1CCC[C@@H]1c1cccc2ccsc12 [Compound C105SR, 1-((S)-2-((R)-2-(benzo[b]thiophen-7-yl)pyrrolidin-1-yl)-1-(5-bromo-2-methoxyphenyl)-2-oxoethyl)-3-((1,2,3,4-tetrahydroquinolin-6-yl)methyl)urea] | 0.009 ± 0.001 | protected against hypoxia/reoxygenation-induced cell apoptosis | low propidium iodide fluorescence
COc1ccc(Br)cc1[C@H](NC(=O)NCc1ccc(N)cc1)C(=O)N1CCC[C@@H]1c1cccc2ccsc12 [Compound C110SR, 1-(4-aminobenzyl)-3-((S)-2-((R)-2-(benzo[b]thiophen-7-yl)pyrrolidin-1-yl)-1-(5-bromo-2-methoxyphenyl)-2-oxoethyl)urea] | 0.04 ± 0.005 | protected against hypoxia/reoxygenation-induced cell apoptosis | low propidium iodide fluorescence
